IC50 data for 24 compounds are collected here from US8193351B2, “HSP90 inhibitor” (Chugai Seiyaku Kabushiki Kaisha, priority 2006, dated 2012).

A word on the IC50: it is the point on the concentration scale where inhibition reaches its midpoint.

One test concerns the target T1, Human HSP90 alpha (Homo sapiens, UniProt P07900).
T1 construct: made in house; host or cells: E. coli BL21 codon plus (Stratagene)
Description: Measurement of HSP90 enzyme inhibitory activity (ATPase, malachite green). Format: biochemical. The note with it: purified human HSP90 alpha, 1 mM ATP added, 37° C., two hours; read-out: Enzyme inhibitory activity (IC50, μM) Human HSP 90α. Here is the method:
HSP90 enzyme inhibitory activity of the compounds of the present invention represented by formula (1) was measured by the following method. Among the 6-phenyl-N-phenyl-(1,3,5)triazin/(1,3)pyrimidin-2,4-diamine derivatives which are known LPAAT-β inhibitors, the following two compounds were used as comparative compounds, and their HSP90 enzyme inhibitory activities were measured similarly by the following method.
Introduction of pETHuHSP90a into E. coli (BL21 codon plus; Stratagene) was followed by O/N incubation in the presence of 0.1 mM IPTG, and the collected E. coli cells were disrupted by ultrasonication in a Lysis buffer (50 mM Tris-HCl (pH8.0), 10 mM MgCl2, 0.1% Triton X-100, Protease inhibitor cocktail tablets (Roche Diagnostics)). The cell lysate solution was centrifuged (10,000 rpm×30 minutes), and the supernatant obtained after centrifugation was used as a crude extract. The crude extract was fractionated using HisPrep FF column and HiTrap Q column (Amersham) to prepare a purified enzyme solution.
An enzyme solution for assays was prepared by dilution of the purified enzyme solution using an assay buffer (50 mM Tris HCl pH7.6, 20 mM KCl, 5 mM MgCl2).
10 μL each of various concentrations of the test substances (10% DMSO solution) was added to each well, and for the positive control wells, 10 μL of 10% DMSO was added. 10 μL of 10% DMSO was also added to the negative control well.
10 μL of 1 mM ATP was added to all of the wells, and the reaction was carried out at 37° C. for two hours.

For the next test, the system named is HCT116 cells. Description: Measurement of cell growth inhibition (Cell Counting Kit-8, four days). Format: cell-based. Conditions: Homo sapiens, HCT-116, 96 h; HCT116 colon cancer cell line, four days culture; read-out: Cell growth inhibitory activity (IC50, μM) HCT116. Here is the method: Cell growth inhibitory activities of the compounds of the present invention represented by formula (1) were measured by the following method.
Cells were maintained under conditions recommended by the provider of each cell line. Cells suspended in a medium were added to solutions containing various concentrations of the test substance, and the cells were cultured at 37° C. in a 5% CO2 incubator. Four days later, Cell Counting Kit-8 was added, and absorbance measurements were taken following the protocol included in the kit.
For orientation: Formazan colour is commonly taken as a measure of viable cells.

As for `Nc1nc(SCCC(=O)NCCO)cc(-c2c(Cl)cc3c4c(cccc24)COC3)n1` [Example 317, 3-[2-amino-6-(5-chloro-1H,3H-benzo[de]isochromen-6-yl)-pyrimidin-4-ylsulfanyl]-N-(2-hydroxy-ethyl)-propionamide], the concentration for half-maximal inhibition (IC50) at Human HSP90 alpha amounted to 1.3 µM; with HCT116 cells it was 0.41 µM.
For `CNC(=O)CCSc1cc(-c2c(Cl)cc3c4c(cccc24)COC3)nc(N)n1` [Example 318, 3-[2-amino-6-(5-chloro-1H,3H-benzo[de]isochromen-6-yl)-pyrimidin-4-ylsulfanyl]-N-methyl-propionamide], in that order: 1.4 µM and 0.22 µM.
Turning to `COCCNC(=O)CCSc1cc(-c2c(Cl)cc3c4c(cccc24)COC3)nc(N)n1` [Example 319, 3-[2-amino-6-(5-chloro-1H,3H-benzo[de]isochromen-6-yl)-pyrimidin-4-ylsulfanyl]-N-(2-methoxy-ethyl)-propionamide], the half-inhibitory concentration (IC50) on Human HSP90 alpha stood at 2.1 µM; in the test on HCT116 cells, 0.62 µM.
On to `Nc1nc(SCCC(=O)NC[C@@H](O)CO)cc(-c2c(Cl)cc3c4c(cccc24)COC3)n1` [Example 320, 3-[2-amino-6-(5-chloro-1H,3H-benzo[de]isochromen-6-yl)-pyrimidin-4-ylsulfanyl]-N—((R)-2,3-dihydroxy-propyl)-propionamide], for which the IC50 at Human HSP90 alpha amounted to 1.4 µM; with HCT116 cells, 0.63 µM.
For `CC(CSc1cc(-c2c(Cl)cc3c4c(cccc24)COC3)nc(N)n1)C(N)=O` (stereo not drawn) [Example 321, 3-[2-amino-6-(5-chloro-1H,3H-benzo[de]isochromen-6-yl)-pyrimidin-4-ylsulfanyl]-2-methyl-propionamide], in that order: 1.3 µM and 0.13 µM.
As for `CNC(=O)C(C)CSc1cc(-c2c(Cl)cc3c4c(cccc24)COC3)nc(N)n1` (stereo not drawn) [Example 322, 3-[2-amino-6-(5-chloro-1H,3H-benzo[de]isochromen-6-yl)-pyrimidin-4-ylsulfanyl]-2,N-dimethyl-propionamide], the IC50 at Human HSP90 alpha is 1.7 µM; in the test with HCT116 cells, 0.08 µM.
The corresponding values for `CC(CSc1cc(-c2c(Cl)cc3c4c(cccc24)COC3)nc(N)n1)C(=O)NCCO` (stereo not drawn) [Example 323, 3-[2-amino-6-(5-chloro-1H,3H-benzo[de]isochromen-6-yl)-pyrimidin-4-ylsulfanyl]-N-(2-hydroxy-ethyl)-2-methyl-propionamide] are 2.8 µM and 0.21 µM.
Consider `NC(=O)CCCSc1cc(-c2c(Cl)cc3c4c(cccc24)COC3)nc(N)n1` [Example 324, 4-[2-amino-6-(5-chloro-1H,3H-benzo[de]isochromen-6-yl)-pyrimidin-4-ylsulfanyl]-butylamide], for which the half-inhibitory concentration (IC50) at Human HSP90 alpha was 1.8 µM; in the test with HCT116 cells it was 0.16 µM.
For `NC(=O)OCCSc1cc(-c2c(Cl)cc3c4c(cccc24)COC3)nc(N)n1` [Example 325, carbamic acid 2-[2-amino-6-(5-chloro-1H,3H-benzo[de]isochromen-6-yl)-pyrimidin-4-ylsulfanyl]-ethyl ester], in that order: 2.1 µM and 0.26 µM.
For `Nc1nc(SCCCO)cc(-c2c(Cl)cc3c4c(cccc24)COC3)n1` [Example 326, 3-[2-amino-6-(5-chloro-1H,3H-benzo[de]isochromen-6-yl)-pyrimidin-4-ylsulfanyl]-propan-1-ol], the concentration for half-maximal inhibition (IC50) on Human HSP90 alpha came out at 2.1 µM; in the test with HCT116 cells it was 0.52 µM.
For `CC(=O)NCCSc1cc(-c2c(Cl)cc3c4c(cccc24)COC3)nc(N)n1` [Example 327, N-{2-[2-amino-6-(5-chloro-1H,3H-benzo[de]isochromen-6-yl)-pyrimidin-4-ylsulfanyl]-ethyl}-acetamide], in that order: 2.1 µM and 0.93 µM.
For `CC(=O)NCCCSc1cc(-c2c(Cl)cc3c4c(cccc24)COC3)nc(N)n1` [Example 328, N-{3-[2-amino-6-(5-chloro-1H,3H-benzo[de]isochromen-6-yl)-pyrimidin-4-ylsulfanyl]-propyl}-acetamide], the IC50 turned out to be 2.1 µM at Human HSP90 alpha and 0.2 µM with HCT116 cells.
As for `CS(=O)(=O)NCCSc1cc(-c2c(Cl)cc3c4c(cccc24)COC3)nc(N)n1` [Example 329, N-{2-[2-amino-6-(5-chloro-1H,3H-benzo[de]isochromen-6-yl)-pyrimidin-4-ylsulfanyl]-ethyl}-methanesulfonamide], the figures for the half-maximal inhibitory concentration (IC50) at Human HSP90 alpha and in the test on HCT116 cells were 1 µM and 0.31 µM, respectively.
The corresponding values for `Nc1nc(SCC2CNC(=O)O2)cc(-c2c(Cl)cc3c4c(cccc24)COC3)n1` (stereo not drawn) [Example 330, 5-[2-amino-6-(5-chloro-1H,3H-benzo[de]isochromen-6-yl)-pyrimidin-4-ylsulfanylmethyl]-oxazolidin-2-one] are 1.2 µM and 2.1 µM.
The corresponding values for `Nc1nc(SCCNC(=O)CO)cc(-c2c(Cl)cc3c4c(cccc24)COC3)n1` [Example 331, N-{2-[2-amino-6-(5-chloro-1H,3H-benzo[de]isochromen-6-yl)-pyrimidin-4-ylsulfanyl]-ethyl}-2-hydroxy-acetamide] are 1.5 µM and 1.9 µM.
The corresponding values for `NC(=O)NCCSc1cc(-c2c(Cl)cc3c4c(cccc24)COC3)nc(N)n1` [Example 332, {2-[2-amino-6-(5-chloro-1H,3H-benzo[de]isochromen-6-yl)-pyrimidin-4-ylsulfanyl]-ethyl}-urea] are 2.2 µM and 0.47 µM.
As to `N#CCNC(=O)CSc1nc(N)nc(-c2c(Cl)cc3c4c(cccc24)COC3)n1` [Example 333, 2-[4-amino-6-(5-chloro-1H,3H-benzo[de]isochromen-6-yl)-[1,3,5]triazin-2-ylsulfanyl]-N-cyano methyl-acetamide], the IC50 came to 1.9 µM on Human HSP90 alpha and 0.38 µM in the test on HCT116 cells.
The corresponding values for `COCCNC(=O)CCSc1nc(N)nc(-c2c(Cl)cc3c4c(cccc24)COC3)n1` [Example 334, 3-[4-amino-6-(5-chloro-1H,3H-benzo[de]isochromen-6-yl)-[1,3,5]triazin-2-ylsulfanyl]-N-(2-methoxy-ethyl)-propionamide] are 1.3 µM and 0.16 µM.
The corresponding values for `Nc1nc(SCCC(=O)NC[C@@H](O)CO)nc(-c2c(Cl)cc3c4c(cccc24)COC3)n1` [Example 335, 3-[4-amino-6-(5-chloro-1H,3H-benzo[de]isochromen-6-yl)-[1,3,5]triazin-2-ylsulfanyl]-N—((R)-2,3-dihydroxy-propyl)-propionamide] are 1.2 µM and 0.49 µM.
`CNC(=O)C(C)CSc1nc(N)nc(-c2c(Cl)cc3c4c(cccc24)COC3)n1` (stereo not drawn) [Example 337, 3-[4-amino-6-(5-chloro-1H,3H-benzo[de]isochromen-6-yl)-[1,3,5]triazin-2-ylsulfanyl]-2,N-dimethyl-propionamide]: the half-maximal inhibitory concentration (IC50) on Human HSP90 alpha stood at 1.5 µM; in the test on HCT116 cells it was 0.018 µM.
For `CC(CSc1nc(N)nc(-c2c(Cl)cc3c4c(cccc24)COC3)n1)C(=O)NCCO` (stereo not drawn) [Example 338, 3-[4-amino-6-(5-chloro-1H,3H-benzo[de]isochromen-6-yl)-[1,3,5]triazin-2-ylsulfanyl]-N-(2-hydroxy-ethyl)-2-methyl-propionamide], in that order: 1.5 µM and 0.12 µM.
With `Nc1nc(SCCCO)nc(-c2c(Cl)cc3c4c(cccc24)COC3)n1` [Example 340, 3-[4-amino-6-(5-chloro-1H,3H-benzo[de]isochromen-6-yl)-[1,3,5]triazin-2-ylsulfanyl]-propan-1-ol], the half-maximal inhibitory concentration (IC50) on Human HSP90 alpha was found to be 3.3 µM; with HCT116 cells it was 0.12 µM.
For `Nc1nc(SCCNC(=O)CO)nc(-c2c(Cl)cc3c4c(cccc24)COC3)n1` [Example 342, N-{2-[4-amino-6-(5-chloro-1H,3H-benzo[de]isochromen-6-yl)-[1,3,5]triazin-2-ylsulfanyl]-ethyl}-2-hydroxy-acetamide], in that order: 1.3 µM and 0.49 µM.
With `NC(=O)CCCSc1nc(N)nc(-c2c(Cl)cc3c4c(cccc24)CSC3)n1` [Example 343, 4-[4-amino-6-(5-chloro-1H,3H-2-thia-phenalen-6-yl)-[1,3,5]triazin-2-ylsulfanyl]-butyramide], the half-maximal inhibitory concentration (IC50) on Human HSP90 alpha turned out to be 1.8 µM; with HCT116 cells, 0.015 µM.
